Experimental data reported in patent US20080176932A1, “Pharmaceutical Compositions Containing Baicalein And Baicalin With Synergistic Effect In Tumor Treatment” (priority 2005, published 2008).
Read-outs that look alike come from different tables or passages of the source.

What was measured:
[1] = system: human liver cancer cell line HepG2; test: MTT growth inhibition, baicalein and scutellarin single or combination; type: cell-based
[2] = system: Murine melanoma cell line B 16; test: Solid tumor transplant model, baicalein and scutellarin; type: in vivo, C57BL/6 female mice; details: B16 mice, B 30 mg/kg i.p., day 1-10
Protocol: (§1) C57BL/6 female mice (weight approximately 20 g) were used in this study. Murine melanoma cell line B 16 cells, 2×10^6 tumor cells were implanted s.c. into the armpit of each mice after two passenges in vitro cultured. On the next day after implantation, mice were randomly grouped at 10 per group and received 0.1ml/10 g weight of the drugs. […] The number of mice of each group was 10. Mice were weighed before and post the treatment. Animals were killed on day 15, and the tumors were removed and weighted.

[3] = system: Human hung cancer cell line A549; test: MTT growth inhibition, baicalein and scutellarin single or combination; type: cell-based
[4] = system: Human colon cancer cell line HCT116; test: MTT growth inhibition, baicalein and baicalin single or combination; type: cell-based
Excerpt: Human colon cancer cell line HCT116—Table 2;

L1210 cells [5] = type: in vivo; details: B 30 mg/kg i.p., day 1-10
Protocol: (§2) L1210 cells on the growth phase were injected at 1×10^5 cells via I.P. into BDF1 female mice (weight approximately 20 g). The next day of implantation, mice were grouped, and received an injection of 0.1 ml/10 g weight of the drug. […] The number of mice of each group was 10. Mice were weighed before and after the treatment. Survival time of each mouse was recorded. The results of changes in increasing of life span of mice were used in assessment of response. The increase of life span was determined as; increase of life span rate=(median survival time of treated animals/median survival time of control animals−1)×100%, the data were analyzed by t-test.

[6] = system: Human colon cancer cell line HCT116; test: MTT growth inhibition, baicalein and scutellarin single or combination; type: cell-based
[7] = system: Human breast cancer cell line MCF-7
[8] = system: Human leukemia cell line HL60; test: MTT growth inhibition, baicalein and baicalin single or combination; type: cell-based
Excerpt: Human leukemia cell line HL60—Table 8.

[9] = system: Human esophagus cancer cell line TE2; test: MTT growth inhibition, baicalein and scutellarin single or combination; type: cell-based
Protocol: (§3) Cells were seeded onto 96-well plate at 5×10^3 cells/well, and grown in culture medium containing 10% fetal bovine serum (FBS). […] The viable cell growth was determined by MTT assay after 72-h continuous exposure.
(§4) A CI below 1 is an indication of synergy, while a CI equal to 1 represents addition, and a CI above 1 indicates antagonism.

[10] = system: Human prostate cancer cell line PC3; test: as above; type: cell-based
Protocol: as §3, §4

[11] = system: Human breast cancer cell line MCF-7; test: as above; type: cell-based
Protocol: as §3, §4

[12] = system: Human leukemia cell line HL60; test: as above; type: cell-based
[13] = system: Human prostate cancer cell line PC3
[14] = system: Human hung cancer cell line A549; test: MTT growth inhibition, baicalein and baicalin single or combination; type: cell-based
Excerpt: Human hung cancer cell line A549—Table 3;

[15] = system: Murine melanoma cell line B 16; test: Solid tumor transplant model, baicalein and baicalin; type: in vivo; details: B16 mice, B 30 mg/kg i.p., day 1-10
Protocol: as §1, with “0.1 ml/10” for “0.1ml/10”

[16] = system: Human esophagus cancer cell line TE2
L1210 cells [17] = type: in vivo; details: B 30 mg/kg i.p., day 1-10; remark: listed apart in the source
Protocol: as §2

[18] = system: Human gastric cancer cell line MKN28; test: MTT growth inhibition, baicalein and scutellarin single or combination; type: cell-based
[19] = system: Human gastric cancer cell line MKN28; test: MTT growth inhibition, baicalein and baicalin single or combination; type: cell-based
Excerpt: Human gastric cancer cell line MKN28—Table 4;

[20] = system: human liver cancer cell line HepG2; test: as above; type: cell-based
Excerpt: The results of experiments with human liver cancer cell line HepG2 are illustrated in Table 1;

O=c1cc(-c2ccccc2)oc2cc(O)c(O)c(O)c12 [B, baicalein]
Inhibition of cell growth (%) ([1]; single dose 2.5 μm): 7.35 ± 2.2% | Inhibition of cell growth (%) ([1]; single dose 5 μm): 32.7 ± 2.3% | Inhibition of cell growth (%) ([1]; single dose 10 μm): 49.8 ± 2.1% | Inhibition of cell growth (%) ([1]; single dose 20 μm): 58.5 ± 1.2% | Inhibition of cell growth (%) ([1]; single dose 40 μm): 90.18 ± 2.5% | Final Tumor WT. (g) Mean ± SD ([2]; day 15): 1.72 ± 0.09 g | Tumor Growth Inhibition % ([2]; day 15): 21.1% | Number of mice through 15 days/total number [2]: 10/10 | Weight Change % [2]: <5% | Inhibition of cell growth (%) ([3]; single dose 2.5 μm): 10.55 ± 1.2% | Inhibition of cell growth (%) ([3]; single dose 5 μm): 17.19 ± 2.2% | Inhibition of cell growth (%) ([3]; single dose 10 μm): 40.8 ± 3.2% | Inhibition of cell growth (%) ([3]; single dose 20 μm): 62.5 ± 2% | Inhibition of cell growth (%) ([3]; single dose 40 μm): 90.18 ± 2.1% | Inhibition of cell growth (%) ([4]; single dose 2.5 μm): 5.8 ± 2% | Inhibition of cell growth (%) ([4]; single dose 5 μm): 20.5 ± 3% | Inhibition of cell growth (%) ([4]; single dose 10 μm): 29.2 ± 3% | Inhibition of cell growth (%) ([4]; single dose 20 μm): 41 ± 2.7% | Inhibition of cell growth (%) ([4]; single dose 40 μm): 89.15 ± 3% | Number of mice Surviving through 15 days/total number (L1210 cells [5]): 10/10 | ILS(%) increase of life span (L1210 cells [5]; L1210 mice): 31.6% | Inhibition of cell growth (%) ([6]; single dose 2.5 μm): 5.8 ± 2% | Inhibition of cell growth (%) ([6]; single dose 5 μm): 10.5 ± 2.3% | Inhibition of cell growth (%) ([6]; single dose 10 μm): 29.2 ± 2.7% | Inhibition of cell growth (%) ([6]; single dose 20 μm): 47 ± 3.1% | Inhibition of cell growth (%) ([6]; single dose 40 μm): 91.15 ± 2.5% | Inhibition of cell growth (%) ([7]; single dose 2.5 μm): 7.2 ± 2% | Inhibition of cell growth (%) ([7]; single dose 5 μm): 27.55 ± 2% | Inhibition of cell growth (%) ([7]; single dose 10 μm): 51 ± 3% | Inhibition of cell growth (%) ([7]; single dose 20 μm): 71.77 ± 2.5% | Inhibition of cell growth (%) ([7]; single dose 40 μm): 90.5 ± 2.5% | Inhibition of cell growth (%) ([8]; single dose 2.5 μm): 6.5 ± 2% | Inhibition of cell growth (%) ([8]; single dose 5 μm): 21.8 ± 3% | Inhibition of cell growth (%) ([8]; single dose 10 μm): 41.32 ± 2.7% | Inhibition of cell growth (%) ([8]; single dose 20 μm): 67.6 ± 3.2% | Inhibition of cell growth (%) ([8]; single dose 40 μm): 86.77 ± 3.3% | Inhibition of cell growth (%) ([9]; single dose 2.5 μm): 5 ± 2% | Inhibition of cell growth (%) ([9]; single dose 5 μm): 16.8 ± 1.2% | Inhibition of cell growth (%) ([9]; single dose 10 μm): 38.4 ± 2.1% | Inhibition of cell growth (%) ([9]; single dose 20 μm): 66.85 ± 2% | Inhibition of cell growth (%) ([9]; single dose 40 μm): 83.1 ± 2.1% | Inhibition of cell growth (%) ([10]; single dose 2.5 μm): 7.2 ± 5% | Inhibition of cell growth (%) ([10]; single dose 5 μm): 22.8 ± 6% | Inhibition of cell growth (%) ([10]; single dose 10 μm): 50.9 ± 5% | Inhibition of cell growth (%) ([10]; single dose 20 μm): 69.9 ± 5% | Inhibition of cell growth (%) ([10]; single dose 40 μm): 92.9 ± 7% | Inhibition of cell growth (%) ([11]; single dose 2.5 μm): 0.8 ± 2% | Inhibition of cell growth (%) ([11]; single dose 5 μm): 13.02 ± 2.5% | Inhibition of cell growth (%) ([11]; single dose 10 μm): 51.02 ± 2.2% | Inhibition of cell growth (%) ([11]; single dose 20 μm): 64.35 ± 2.2% | Inhibition of cell growth (%) ([11]; single dose 40 μm): 93 ± 2.5% | Inhibition of cell growth (%) ([12]; single dose 2.5 μm): 7.5 ± 2.7% | Inhibition of cell growth (%) ([12]; single dose 5 μm): 22.7 ± 2.2% | Inhibition of cell growth (%) ([12]; single dose 10 μm): 41.8 ± 2.7% | Inhibition of cell growth (%) ([12]; single dose 20 μm): 60.6 ± 3.2% | Inhibition of cell growth (%) ([12]; single dose 40 μm): 89.18 ± 2.1% | Inhibition of cell growth (%) ([13]; single dose 2.5 μm): 7.2 ± 5% | Inhibition of cell growth (%) ([13]; single dose 5 μm): 22.8 ± 6% | Inhibition of cell growth (%) ([13]; single dose 10 μm): 50.9 ± 5% | Inhibition of cell growth (%) ([13]; single dose 20 μm): 69.9 ± 5% | Inhibition of cell growth (%) ([13]; single dose 40 μm): 92.9 ± 7% | Inhibition of cell growth (%) ([14]; single dose 2.5 μm): 13.5 ± 4% | Inhibition of cell growth (%) ([14]; single dose 5 μm): 17.18 ± 3% | Inhibition of cell growth (%) ([14]; single dose 10 μm): 39.2 ± 2% | Inhibition of cell growth (%) ([14]; single dose 20 μm): 63.85 ± 3.2% | Inhibition of cell growth (%) ([14]; single dose 40 μm): 96.41 ± 2% | Final Tumor WT. (g) Mean ± SD ([15]; day 15): 1.72 ± 0.09 g | Tumor Growth Inhibition % ([15]; day 15): 21.1% | Weight Change % [15]: <5% | Inhibition of cell growth (%) ([16]; single dose 2.5 μm): 5.5 ± 1% | Inhibition of cell growth (%) ([16]; single dose 5 μm): 17.2 ± 2.8% | Inhibition of cell growth (%) ([16]; single dose 10 μm): 28 ± 2% | Inhibition of cell growth (%) ([16]; single dose 20 μm): 57.9 ± 2.1% | Inhibition of cell growth (%) ([16]; single dose 40 μm): 85.2 ± 2.3% | Number of mice Through surviving 15 days/total number (L1210 cells [17]): 10/10 | ILS(%) increase of life span (L1210 cells [17]; L1210 mice): 31.6% | Inhibition of cell growth (%) ([18]; single dose 2.5 μm): 16.5 ± 1.1% | Inhibition of cell growth (%) ([18]; single dose 5 μm): 27.7 ± 2.1% | Inhibition of cell growth (%) ([18]; single dose 10 μm): 42.8 ± 2.3% | Inhibition of cell growth (%) ([18]; single dose 20 μm): 65.6 ± 3% | Inhibition of cell growth (%) ([18]; single dose 40 μm): 80.21 ± 2.5% | Inhibition of cell growth (%) ([19]; single dose 2.5 μm): 7.7 ± 3% | Inhibition of cell growth (%) ([19]; single dose 5 μm): 37.11 ± 2.9% | Inhibition of cell growth (%) ([19]; single dose 10 μm): 53 ± 3.2% | Inhibition of cell growth (%) ([19]; single dose 20 μm): 58 ± 2% | Inhibition of cell growth (%) ([19]; single dose 40 μm): 77 ± 3% | Inhibition of cell growth (%) ([20]; single dose 2.5 μm): 7.4 ± 2% | Inhibition of cell growth (%) ([20]; single dose 5 μm): 34.93 ± 3% | Inhibition of cell growth (%) ([20]; single dose 10 μm): 50.2 ± 3% | Inhibition of cell growth (%) ([20]; single dose 20 μm): 58.5 ± 2.5% | Inhibition of cell growth (%) ([20]; single dose 40 μm): 89.18 ± 2%
